Assay results from publication PMC11235171, “Microproteins encoded by noncanonical ORFs are a major source of tumor-specific antigens in a liver cancer patient meta-cohort” (Science Advances, 2024).

Assays:
HHD-DR1 mice [1] = assay: IFN-γ ELISPOT on splenocytes of peptide-immunized HLA-A*02:01 transgenic mice; format: in vivo, mouse; settings: for IFN-γ signal after peptide immunization (immunogenicity), in words: HLA-A*02:01 / HLA-DRB1*01 transgenic mice immunized twice, T cell response measured at day 14 by IFN-γ ELISPOT
Experimental: (§1) Eight-week-old female HHD-DR1 mice, transgenic for human HLA-A*02:01 molecules ([82]), were used. After study approval by the ethics review committee (reference no. 036-21), mice were bred and housed under pathogen-free conditions in the animal facility of the Center for Applied Medical Research (CIMA). Mice (n = 4 per group) were immunized with peptides (100 nmol per peptide), polyinosinic:polycytidylic acid (50 μg per mouse), and αCD40 (50 μg per mouse). The peptides and adjuvants were administered simultaneously via subcutaneous injection of 100 μl of the mixture resuspended in phosphate-buffered saline. Mice received a boost on day 7 and were euthanized on day 14.
The spleens of immunized mice were processed to measure the number of IFN-γ secreting cells. Splenocytes (8 × 10^5 cells per well) were stimulated for 24 hours with peptides (10 μg/ml). The number of IFN-γ secreting cells was quantified by ImmunoSpot automated counter (Cellular Technology Limited) using the Spot 3 CTL CellCounting software.

HHD-DR1 mice [2] = assay: IFN-γ intracellular cytokine staining (flow cytometry) of CD4+ and CD8+ T cells after peptide immunization; format: in vivo, mouse; settings: splenocytes of immunized mice stimulated with peptide 10 μM, 4 hours, GolgiStop/GolgiPlug; cell density plots
Experimental: as §1
Splenocytes were stimulated with the peptides (10 μM) in the presence of GolgiStop and GolgiPlug (BD Biosciences). Four hours later, cells were surface stained with the following antibodies: CD3ε-Percp-Cy5 (145-2 C11), CD4-FITC (RM4-5), and CD8-BV421 (53-6.7) from BioLegend. Next, cells were fixed and permeabilized using BD Cytofix/Cytoperm Fixation/Permeablization Kit and intracellularly stained with IFNγ-PE (XMG1.2) antibodies. Samples were acquired with a Cytoflex (Beckman Coulter) flow cytometer and were analyzed using FlowJo software (Tree Star).

| Sequence | IFN-γ signal after peptide immunization (immunogenicity), in words (HHD-DR1 mice [1]) | IFN-γ producing CD8+ versus CD4+ T cells (ICS), in words (HHD-DR1 mice [2]) | number of IFN-γ secreting cells (IFNγSFC) (HHD-DR1 mice [1]; HHD-DR1 mice, n = 4 per group, 100 nmol peptide + poly I:C + αCD40 s.c., boost day 7, spleens day 14, splenocytes stimulated 24 hours with peptide 10 μg/ml, all four replicates) |
| --- | --- | --- | --- |
| GLFHIYHKI | strong IFN-γ signal | signal for CD8+ cells only | – |
| WMSLDWELYV | strong IFN-γ signal | signal for CD8+ cells only | > 1000 IFNγSFC per 8 × 10^5 cells |
